Reference: ChEMBL document CHEMBL1201862, “PubChem BioAssay data set” (2004)
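Values below derive from 48-hour exposures of cells grown in 96-well plates, with endpoints linearly interpolated between the two concentrations bracketing the appropriate inhibition level. GI50 marks 50% less growth.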 The source made the active and inactive calls. No stated cut-off is given here; in the data, active = GI50 up to about 1.1 µM and inactive = higher.

Columns and labels:
Test in all cases: DTP human tumour cell line panel, 48 h
Hs-578T = test system: Hs-578T
MDA-MB-435 = test system: MDA-MB-435
MDA-N = test system: MDA-N
PC-3 = test system: PC-3
SK-MEL-28 = test system: SK-MEL-28
MCF7 = test system: MCF7
A498 = test system: A498
NCI-H522 = test system: NCI-H522
KM12 = test system: KM12
MDA-MB-231 = test system: MDA-MB-231
NCI/ADR-RES = test system: NCI/ADR-RES
HOP-62 = test system: HOP-62
LOX IMVI = test system: LOX IMVI
SR = test system: SR
KM-20L2 = test system: KM-20L2
M19-MEL = test system: M19-MEL
SNB-78 = test system: SNB-78
XF498 = test system: XF498
DMS-273 = test system: DMS-273
LXFL 529 = test system: LXFL 529

Measured: GI50

N#CCCC1C(C#N)C2(Cl)CC1(Cl)C(Cl)=C2Cl (configuration not stated)
inactive: Hs-578T > 10 µM | MDA-MB-435 > 10 µM | MDA-N > 10 µM | PC-3 > 10 µM | SK-MEL-28 > 10 µM | MCF7 > 10 µM | A498 > 10 µM | NCI-H522 3.59 µM | KM12 > 10 µM | MDA-MB-231 > 10 µM | NCI/ADR-RES > 10 µM | HOP-62 > 10 µM | LOX IMVI > 10 µM

CCCCOC(=O)CN1C(=O)c2ccccc2C1=O
inactive: SR > 100 µM | KM-20L2 > 100 µM | SK-MEL-28 > 100 µM | NCI-H522 > 100 µM | KM12 > 100 µM | M19-MEL > 100 µM | SNB-78 > 100 µM | XF498 > 100 µM | HOP-62 > 100 µM | DMS-273 > 100 µM | LOX IMVI > 100 µM

CCC1=NC(C(F)(F)F)(C(F)(F)F)N=C(N2CCOCC2)O1
inactive: Hs-578T > 100 µM | MDA-MB-435 > 100 µM | MDA-N > 100 µM | SR > 100 µM | PC-3 > 100 µM | SK-MEL-28 > 100 µM | MCF7 > 100 µM | NCI-H522 > 100 µM | KM12 > 100 µM | MDA-MB-231 > 100 µM | NCI/ADR-RES > 100 µM | LOX IMVI > 100 µM

CC1(C)CCc2cc3c(-c4ccccc4)cc(=O)oc3cc2O1
inactive: KM-20L2 > 100 µM | LXFL 529 > 100 µM | SK-MEL-28 > 100 µM | A498 > 100 µM | NCI-H522 > 100 µM | M19-MEL > 100 µM | SNB-78 85.7 µM | XF498 41 µM | DMS-273 > 100 µM | LOX IMVI > 100 µM

CCOC(=O)c1csc(NC(=O)CN(C)C)n1
inactive: Hs-578T > 100 µM | MDA-MB-435 > 100 µM | MDA-N > 100 µM | SR > 100 µM | PC-3 > 100 µM | SK-MEL-28 > 100 µM | MCF7 > 100 µM | A498 > 100 µM | KM12 > 100 µM | MDA-MB-231 > 100 µM | NCI/ADR-RES > 100 µM | HOP-62 > 100 µM | LOX IMVI > 100 µM

O=c1n(CC2CO2)c2ccccc2n1CC1CS1 (configuration not stated)
inactive: SR 44.7 µM | KM-20L2 > 100 µM | LXFL 529 88.9 µM | SK-MEL-28 > 100 µM | NCI-H522 > 100 µM | KM12 > 100 µM | M19-MEL > 100 µM | XF498 > 100 µM | HOP-62 > 100 µM | DMS-273 > 100 µM | LOX IMVI 71 µM

Cc1ccc(Cl)cc1/N=N/C(=O)NNc1cc(Cl)ccc1C
inactive: Hs-578T 23.8 µM | MDA-MB-435 25.2 µM | MDA-N 31.8 µM | SR 37.7 µM | PC-3 10.1 µM | SK-MEL-28 18 µM | MCF7 27.8 µM | A498 20.3 µM | NCI-H522 13.1 µM | KM12 33.1 µM | MDA-MB-231 16.8 µM | NCI/ADR-RES 19.9 µM | HOP-62 10.8 µM

O=c1c2ccccc2[nH]c2cc(O)cc(O)c12
inactive: LXFL 529 39.3 µM | SK-MEL-28 > 100 µM | NCI-H522 16.9 µM | KM12 34.9 µM | M19-MEL 39.1 µM | SNB-78 > 100 µM | XF498 27.9 µM | DMS-273 35.1 µM | LOX IMVI 32.1 µM
